Series [1] concerns Total cholesterol in serum (hypercholesterolemic mice). Briefly: Blood cholesterol lowering activity (total serum cholesterol in mice given a lipid emulsion). Particulars: for Serum cholesterol value: p.o., 17 hours after second administration. Format: in vivo, dd-Male mice. As to the method:
dd-Male mice weighing about 25 g (one group: 10 mice) were allowed to fast for 12 hours, and thereto was orally administered a lipid emulsion (olive oil 32.7%, cholesterol 2.5%, sodium cholate 1.8%, sucrose 41.9%, and water 21.1%) in a dose of 25.5 ml/kg. A suspension of a test compound in gum arabic was orally administered to the mice twice, i.e. immediately after and […] after the administration of the lipid emulsion. 17 hours after the second administration of test compound, blood was collected from descending abdominal aorta under ether anesthesia. Total cholesterol in serum was measured by COD-p-chlorophenol colorimetry. As a reference compound, there was used Nicomol (chemical name: 2,2,6,6-tetrakis(nicotinoyloxymethyl)cyclohexanol) which is commercially available anticholesteremic agent.
Serum cholesterol values at 17 hours after the second administration of test compound were compared with the serum cholesterol values in normal mice and hypercholesterolemic mice.

Series [2] deals with blood cholesterol concentration. Particulars: known agents, background; cited from earlier work.
Series [3] is described as follows: Acute toxicity (LD50). Particulars: mouse, in vivo; mice, oral administration. As to the method: The compounds of this invention show a low toxicity. For instance, Compound 1 and Compound 2 have LD50 of more than 5,000 mg/kg in mice (by oral administration).
Series [4] has as its system glutamic pyruvic transaminase (GPT) in serum, CCl4-administered mice. Briefly: Activity against carbon tetrachloride-induced hepatic disease (serum GPT). The class given is in vivo, dd male mice. As to the method:
(§1) To dd male mice weighing 18-20 g (one group: 10 mice) was orally administered a suspension of a test compound in gum arabic twice or three times per day. On the third day, 1% carbon tetrachloride (v/v % in olive oil) was subcutaneously injected at the back of the mice in a dose of 2 ml/kg one hour after the last administration of test compound. 19 hours after the injection of CCl4, a suspendion of a test compound in gum arabic was orally administerd. After one hour, the mice were subjected to laparotomy under ether anesthesia and blood was collected from the descending abdominal aorta. The blood thus collected was centrifuged at 3,000 r.p.m. for 15 minutes. The enzymatic activities of glutamic oxaloacetic transaminase (GOT) and glutamic pyruvic transaminase (GPT) in serum were measured with S.TA-Test Wako (manufactured by Wako Pure Chemical Industries, Ltd., Japan).
(§2) The activities of GOT and GPT in serum of the mice which were administered test compounds were compared with the GOT and GPT activities in serum of normal mice and 1% CCl4 (v/v % in olive oil)-administered mice.

Series [5] relates to glutamic oxaloacetic transaminase (GOT) in serum, CCl4-administered mice. Briefly: Activity against carbon tetrachloride-induced hepatic disease (serum GOT). The class given is in vivo, dd male mice. As for the experimental part: as §1, §2
Series [6] has as its system ornithine carbamyl transferase (OCT) in serum, ethanol-administered mice. Briefly: Activity against alcoholic hepatic disease (serum OCT activity). Format: in vivo, dd-Male mice. As for the experimental part:
dd-Male mice (4 weeks age, weighing about 15 g, one group: 10 mice) were fed with a hyperlipid feed [composition: cholesterol 1.0%, sodium cholate 0.5%, butter 5.0%, sucrose 30.0%, casein 10.0%, and M powder feed (manufactured by Oriental Yeast Co., Ltd., Japan) 53.5%] for 4 weeks. During the feeding, a suspension of a test compound in gum arabic and a 20% aqueous ethanol (15 ml/kg) were orally administered twice a day (morning and evening). After 4 weeks, mice were subjected to laparotomy under ether anesthesia, and blood was collected from the descending abdominal aorta. The blood thus collected was centrifuged at 3,000 r.p.m. for 15 minutes, and the enzymatic activity of ornithine carbamyl transferase (OCT) was measured with OCT-Test Wako (manufactured by Wako Pure Chemical Industries, Ltd., Japan).
The OCT activity in serum of mice which were administered test compounds was compared with the OCT activity in serum of normal mice and in control mice which were administered only 20% aqueous ethanol.

Where only a bound is given, the exact number is not on record here.

Results on ten molecules are retold here after patent US4681890A, “3,4-dihydrobenzopyran compounds and pharmaceutical composition containing the same” (Kuraray Co., Ltd., priority 1984, dated 1987).

Broadly, the LD50 is the dose at which mortality reaches 50%.

In series [1] (Table 1, 474 mg/kg, normal 98.6 ± 10.8, hypercholesterolemic 172.2 ± 8.6), `Cc1c(C)c2c(c(C)c1OC(=O)c1cccnc1)CCC(C)(CCCOC(=O)c1cccnc1)O2` (centres unmarked) [Compound 6, 3,4-dihydro-2-nicotinoyloxypropyl-2,5,7,8-tetramethyl-2H-benzopyran-6-yl nicotinate] had a Serum cholesterol value of 123.8 ± 13.8 mg/dL.

As for `O=C(OCC1(COC(=O)c2cccnc2)CCCC(COC(=O)c2cccnc2)(COC(=O)c2cccnc2)C1O)c1cccnc1` [Nicomol, 2,2,6,6-tetrakis(nicotinoyloxymethyl)cyclohexanol, reference compound], the Serum cholesterol value amounted to 146.1 ± 14.7 mg/dL in series [1] (Table 1, 640 mg/kg, normal 98.6 ± 10.8, hypercholesterolemic 172.2 ± 8.6); 139.4 ± 4.4 mg/dL in series [1] (Table 2, 640 mg/kg, normal 101.0 ± 5.8, hypercholesterolemic 194.3 ± 9.5); 138.3 ± 12.5 mg/dL in series [1] (Table 3, 640 mg/kg, normal 109.1 ± 9.3, hypercholesterolemic 164.0 ± 12.8); 142.7 ± 11.5 mg/dL in series [1] (Table 4, 640 mg/kg, normal 111.3 ± 8.6, hypercholesterolemic 165.0 ± 13.4). The “blood cholesterol concentration lowering” value in series [2] is “not necessarily sufficient for lowering blood cholesterol”.

On to `Cc1c(C)c2c(c(C)c1O)CCC(C)(CCOC(=O)c1cccnc1)O2` (centres unmarked) [Compound 1, 3,4-dihydro-2-nicotinoyloxyethyl-2,5,7,8-tetramethyl-2H-benzopyran-6-ol], for which, in series [3], the LD50 was greater than 5000 mg/kg. Besides, the Serum cholesterol value in series [1] (Table 1, 355 mg/kg, normal 98.6 ± 10.8, hypercholesterolemic 172.2 ± 8.6) was found to be 130.7 ± 11.3 mg/dL.

As for `Cc1c(C)c2c(c(C)c1OC(=O)c1cccnc1)CCC(C)(CCO)O2` (centres unmarked) [Compound 3], the Serum cholesterol value in series [1] (Table 4, 355 mg/kg, normal 111.3 ± 8.6, hypercholesterolemic 165.0 ± 13.4) was found to be 144.0 ± 10.5 mg/dL.

Turning to `Cc1c(C)c2c(c(C)c1OC(=O)c1cccnc1)CCC(C)(CCOC(=O)c1cccnc1)O2` (centres unmarked) [Compound 2, 3,4-dihydro-2-nicotinoyloxyethyl-2,5,7,8-tetramethyl-2H-benzopyran-6-yl nicotinate], the “GPT activity (average)” value in series [4] (Table 6, 300 mg/kg, p.o., normal 74.0 ± 16.3, CCl4-administered 1251.4 ± 285.4) came out at 765.7 ± 84.4. In addition, the LD50 in series [3] is greater than 5000 mg/kg. Besides, the Serum cholesterol value in series [1] (Table 2, 300 mg/kg, normal 101.0 ± 5.8, hypercholesterolemic 194.3 ± 9.5) came out at 139.6 ± 9.3 mg/dL. Also, the “GOT activity (average)” value in series [5] (Table 6, 300 mg/kg, p.o., normal 87.9 ± 5.3, CCl4-administered 914.3 ± 195.1) turned out to be 582.9 ± 59.8. In addition, the “OCT activity unit (mean ± S.E.)” value in series [6] (Table 5, 300 mg/kg, p.o., twice a day, 4 weeks, normal 5.1 ± 3.2, ethanol-administered 122.5 ± 17.0) is recorded as 79.6 ± 12.2 unit.

Molecule `Cc1c(C)c2c(c(C)c1O)CCC(C)(COC(=O)c1cccnc1)O2` (centres unmarked) [Compound 4] came in with a Serum cholesterol value in series [1] (Table 1, 341 mg/kg, normal 98.6 ± 10.8, hypercholesterolemic 172.2 ± 8.6) of 159.4 ± 13.4 mg/dL.

As to `O=C(O)c1cccnc1` [nicotinic acid], the “blood cholesterol concentration lowering” value in series [2] is reported as “temporarily lowered, but the lowered concentration is not sustained”.

Consider `Cc1c(C)c2c(c(C)c1OC(=O)c1cccnc1)CCC(C)(COC(=O)c1cccnc1)O2` (centres unmarked) [Compound 5, 3,4-dihydro-2-nicotinoyloxymethyl-2,5,7,8-tetramethyl-2H-benzopyran-6-yl nicotinate], for which the “inhibition of increase of GPT activity induced by CCl4” value in series [4] (in words) is “excellent inhibition of increase of GOT and GPT activities induced by CCl4 in a similar degree to that of Compound 2”. In series [1] (Table 1, 452 mg/kg, normal 98.6 ± 10.8, hypercholesterolemic 172.2 ± 8.6), this molecule gave a Serum cholesterol value of 127.9 ± 14.2 mg/dL. Moreover, the “cholesterol lowering activity compared with Nicomol” value in series [1] (relative to Nicomol) is “about two times higher cholesterol lowering activity than Nicomol”. In addition, the “inhibition of increase of GOT activity induced by CCl4” value in series [5] (in words) was “excellent inhibition of increase of GOT and GPT activities induced by CCl4 in a similar degree to that of Compound 2”. Further, the “inhibition of increase of OCT activity induced by alcohol” value in series [6] (in words) is “excellent inhibition of increase of OCT activity induced by alcohol in a similar degree to that of Compound 2”.

As to `O=C(OCC(COC(=O)c1cccnc1)(COC(=O)c1cccnc1)COC(=O)c1cccnc1)c1cccnc1` [pentaerythritol tetranicotinate], the “blood cholesterol concentration lowering” value in series [2] is reported as “not necessarily sufficient for lowering blood cholesterol”.

As to `Cc1c(C)c2c(c(C)c1OC(=O)c1cccnc1)CCC(C)(CC(COC(=O)c1cccnc1)OC(=O)c1cccnc1)O2` (centres unmarked) [Compound 7], in series [1] (Table 3, 571 mg/kg, normal 109.1 ± 9.3, hypercholesterolemic 164.0 ± 12.8), the Serum cholesterol value was 143.6 ± 10.8 mg/dL.
